# Measured values as given in the OligoGym collection.
# “And” between values parts separate entries of the source, which are not always exact repeats. Equal entries are not always repeated. After the bases stand the sugars from the 5' end (letter, count) and the backbone: PS all phosphorothioate, else s phosphorothioate and o phosphodiester by linkage. Methylation of C is not given here. e = 2'-O-(2-methoxyethyl) (MOE); k = constrained ethyl (cEt); d = 2'-deoxy (DNA)
# Biological target: APOL1
# Details: ASO
Sequence,"target mRNA inhibition (A431, 2 µM)","target mRNA inhibition (A431, 0.0625 µM)","target mRNA inhibition (A431, 0.25 µM)","target mRNA inhibition (A431, 1 µM)",other results
"GGAATTATGGAATTGC (sugars kdddddkekekddddd, PS)",92%,–,–,–,–
"GGAATTATGGAATTGC (sugars kddddkekekeddddd, PS)",88%,–,–,–,–
"GGAATTATGGAATTGC (sugars kkdddddkekeddddd, PS)",40%,–,–,–,–
"GGAATTATGGAATTGC (sugars kkddddkekekkdddd, PS)",74%,–,–,–,–
"GGACATTGAACCTGGG (sugars k4 d9 k3, PS)",–,50%,78%,86%,–
"GGCCGTGTCACCCTAA (sugars k4 d9 k3, PS)",–,51%,45%,52%,–
"GGGAATTATGGAATTG (sugars kkkddddkekeddddd, PS)",63%,–,–,–,–
"GGGTCAAAAGCGATGG (sugars k4 d9 k3, PS)",–,50%,79%,88%,–
"GGTTATGAAATTATTG (sugars k3 d4 k3 e1 d5, PS)",91%,–,–,–,–
"GTAAGTATTGCCAGCT (sugars kkddddekekeddddd, PS)",69%,–,–,–,–
"GTAAGTATTGCCAGCT (sugars kkddddkekekddddd, PS)",53%,–,–,–,–
"GTAAGTGCTTTGATTC (sugars k4 d9 k3, PS)",–,64%,83%,92%,–
"GTATTGCCAGCTAAGG (sugars k4 d9 k3, PS)",–,56%,85%,94%,–
"GTATTGTTTTTGTGGG (sugars kdddddkekekddddd, PS)",77%,–,–,–,–
"GTATTTCTTGATGTGG (sugars kkddddekekeddddd, PS)",96%,–,–,96%,"target mRNA inhibition (A431, 0.04 µM): 58%"
"GTATTTCTTGATGTGG (sugars kkkddddkekekdddd, PS)",73%,–,–,–,–
"GTCCTTACTGCAGTTT (sugars k4 d9 k3, PS)",–,60%,83%,93%,–
"GTGAGTATTGTTTTTG (sugars kkddddkekekddddd, PS)",88%,–,–,–,–
"GTTATATTTGATCCTC (sugars kekddddeekkddddd, PS)",99%,71%,91%,98%,"target mRNA inhibition (A431, 0.0156 µM): 37%; target mRNA inhibition (A431, 0.04 µM): 31%"
"GTTATATTTGATCCTC (sugars kkddddkdkdkddddd, PS)",93%,38%,68%,89%,"target mRNA inhibition (A431, 0.0156 µM): 9%"
"GTTATATTTGATCCTC (sugars kkkddddkekeddddd, PS)",98%,65%,88%,96%,"target mRNA inhibition (A431, 0.0156 µM): 32%"

Sequence,"target mRNA inhibition (A431, 2 µM)","target mRNA inhibition (A431, 0.0625 µM)","target mRNA inhibition (A431, 0.25 µM)","target mRNA inhibition (A431, 1 µM)",other results
"GTTATGAAATTATTGG (sugars k2 d4 e3 k2 d5, PS)",54%,–,–,–,–
"GTTATGAAATTATTGG (sugars k3 d4 k3 e1 d5, PS)",96%,56%,85%,93%,"target mRNA inhibition (A431, 0.0156 µM): 21%"
"GTTATGAAATTATTGG (sugars kkkddddkdkdkdddd, PS)",91%,–,–,–,–
"GTTATGAAATTATTGG (sugars kkkddddkekekdddd, PS)",79%,–,–,–,–
"GTTCAAAAGCAGCATT (sugars k3 d5 k3 d5, PS)",90%,–,–,–,–
"GTTCAAAAGCAGCATT (sugars k4 d9 k3, PS)",–,–,–,–,"target mRNA inhibition (A431, 0.04 µM): 15% and 11%"
"GTTCAAAAGCAGCATT (sugars kekddddeekkddddd, PS)",89%,–,–,–,–
"GTTCAAAAGCAGCATT (sugars kkddddekekeddddd, PS)",82%,–,–,–,–
"GTTCAAAAGCAGCATT (sugars kkddddkekekddddd, PS)",60%,–,–,–,–
"GTTCAAAAGCAGCATT (sugars kkddddkekekkdddd, PS)",34%,–,–,–,–
"GTTCTAACTCTTGGGC (sugars kkddddkekekddddd, PS)",61%,–,–,–,–
"GTTCTAACTCTTGGGC (sugars kkkddddkekekdddd, PS)",37%,–,–,–,–
"GTTTTGTAAGTGCAAC (sugars kkddddkekekddddd, PS)",88%,–,–,–,–
"GTTTTGTTGCACCCTC (sugars k4 d9 k3, PS)",–,65%,82%,95%,–
"TATATTTGATCCTCAA (sugars kdddddkekekddddd, PS)",89%,–,–,–,–
"TATCAGATGGGTACTT (sugars k3 d4 k3 e1 d5, PS)",69%,–,–,–,–
"TATGGAATTGCAGATA (sugars k4 d9 k3, PS)",–,8%,46%,74%,–
"TATTCTCATGGTACAG (sugars k2 d4 e3 k2 d5, PS)",71%,–,–,–,–
"TATTCTCATGGTACAG (sugars kkkddddkekeddddd, PS)",68%,–,–,–,–
"TCAGATGGGTACTTCT (sugars kkddddkekekddddd, PS)",82%,–,–,–,–
"TCCTTATGCTTACTCC (sugars k4 d9 k3, PS)",–,50%,80%,93%,–
